Among the data in patent publication US9988390B2, “Pyrimidone derivatives and their use in the treatment, amelioration or prevention of a viral disease” (F. Hoffmann-La Roche AG, priority 2015, dated 2018) are IC50 values, retold here.

Counter-ions that a name gives are not always drawn.

In one assay the test system is influenza A virus (A/WSN/33 NanoLuc reporter virus) in A549 cells. In words: microbe, parasite or virus in culture. As to conditions: A549, 24 h, read-out: IC50 values of viral replication inhibition in a cell-based Luciferase Reporter Assay (LRA). Type of assay: cell-based.
With `COc1nc(=O)c(O)c2n1[C@@H](C(c1ccccc1)c1ccccc1)CN(C(C)C)C2=O` [Example 1a-4, (4S)-4-Benzhydryl-9-hydroxy-2-isopropyl-6-methoxy-3,4-dihydropyrazino[1,2-c]pyrimidine-1,8-dione], the IC50 came to 14 nM. Take `COc1nc(=O)c(O)c2n1[C@@H](C(c1ccccc1)c1ccccc1)CN([C@H](C)C(F)(F)F)C2=O` [Ia-66, (4S)-4-Benzhydryl-9-hydroxy-6-methoxy-2-[(1R)-2,2,2-trifluoro-1-methyl-ethyl]-3,4-dihydropyrazino[1,2-c]pyrimidine-1,8-dione]: the IC50 came out at 26 nM.

With `CC(C)N1CC(C2c3cccc(F)c3CCc3c(F)cccc32)n2c(O)nc(=O)c(O)c2C1=O` (centres unmarked) [Ia-25, 4-(4,7-Difluoro-6,11-dihydro-5H-dibenzo[1,3-b:3′,1′-e][7]annulen-11-yl)-6,9-dihydroxy-2-isopropyl-3,4-dihydropyrazino[1,2-c]pyrimidine-1,8-dione], the IC50 was 86 nM.

For the molecule `COc1ccc(CNc2nc(=O)c(O)c3n2[C@@H](C(c2ccccc2)c2ccccc2)CN(C(C)C)C3=O)cc1` [Example 1a-2, (4S)-4-Benzhydryl-9-hydroxy-2-isopropyl-6-[(4-methoxyphenyl)methylamino]-3,4-dihydropyrazino[1,2-c]pyrimidine-1,8-dione formate], the IC50 came to 2070 nM. As to `COCCOc1nc(=O)c(O)c2n1[C@@H](C(c1ccccc1)c1ccccc1)CN(C)C2=O` [Ia-73, (4S)-4-Benzhydryl-9-hydroxy-6-(2-methoxyethoxy)-2-methyl-3,4-dihydropyrazino[1,2-c]pyrimidine-1,8-dione], the IC50 was determined as 119 nM. In the case of `CNC(=N)Nc1nc(=O)c(O)c2n1[C@@H](C(c1ccccc1)c1ccccc1)CN(C(C)C)C2=O` [Ia-50, 1-[(4S)-4-Benzhydryl-9-hydroxy-2-isopropyl-1,8-dioxo-3,4-dihydropyrazino[1,2-c]pyrimidin-6-yl]-3-methyl-guanidine], the IC50 was 1070 nM. As for `COc1nc(=O)c(O)c2n1[C@@H]([C@H](c1ccccc1)c1ccc(Cl)cc1)CN(C(C)C)C2=O` [Ia-72, (4S)-4-[(R)-(4-Chlorophenyl)-phenyl-methyl]-9-hydroxy-2-isopropyl-6-methoxy-3,4-dihydropyrazino[1,2-c]pyrimidine-1,8-dione], the IC50 came to 40 nM. Consider `COc1nc(=O)c(O)c2n1[C@@H](C(c1ccccc1)c1ccccc1)CN(C)C2=O` [Ia-65, (4S)-4-Benzhydryl-9-hydroxy-6-methoxy-2-methyl-3,4-dihydropyrazino[1,2-c]pyrimidine-1,8-dione], for which the IC50 turned out to be 26 nM.

Take `CCc1nc(=O)c(O)c2n1[C@@H](C(c1ccccc1)c1ccccc1)CN(C(C)C)C2=O` [Ia-41, (4S)-4-Benzhydryl-6-ethyl-9-hydroxy-2-isopropyl-3,4-dihydropyrazino[1,2-c]pyrimidine-1,8-dione]: the IC50 is 77 nM. For the molecule `CC(C)N1C[C@H](C2c3ccccc3CCc3ccccc32)n2c(-n3cnnc3)nc(=O)c(O)c2C1=O` [Ia-46], the 50% inhibitory concentration (IC50) turned out to be 55 nM. For `CC(C)Nc1nc(=O)c(O)c2n1[C@@H](C1c3ccccc3CCc3ccccc31)CN(C(C)C)C2=O` [Ia-36, (4S)-4-(6,11-Dihydro-5H-dibenzo[2,1-b:1′,2′-e][7]annulen-11-yl)-9-hydroxy-2-isopropyl-6-(isopropylamino)-3,4-dihydropyrazino[1,2-c]pyrimidine-1,8-dione], the IC50 is 103 nM. As to `CC(C)N1C[C@H](C(c2ccccc2)c2ccccc2)n2c(c(O)c(=O)n(Cc3ccccc3)c2=O)C1=O` [Example 1b-2, (4S)-4-Benzhydryl-7-benzyl-9-hydroxy-2-isopropyl-3,4-dihydropyrazino[1,2-c]pyrimidine-1,6,8-trione], the IC50 worked out at 4300 nM. `CC(C)N1C[C@H](C(c2ccccc2)c2ccccc2)n2c(-n3ccnc3)nc(=O)c(O)c2C1=O` [Ia-43, (4S)-4-Benzhydryl-9-hydroxy-6-imidazol-1-yl-2-isopropyl-3,4-dihydropyrazino[1,2-c]pyrimidine-1,8-dione]: the IC50 came out at 495 nM. For `CC(C)N1C[C@H](C2c3ccccc3CCc3ccccc32)n2c(N)nc(=O)c(O)c2C1=O` [Example 1a-5, (4S)-6-Amino-4-(10,11-dihydro-5H-dibenzo[a,d][7]annulen-5-yl)-9-hydroxy-2-(propan-2-yl)-3,4-dihydro-2H-pyrazino[1,2-c]pyrimidine-1,8-dione], the IC50 was > 50000 nM.

As for `CC(C)N1C[C@H](C2c3ccccc3CCc3ccccc32)n2c(-n3ccnc3)nc(=O)c(O)c2C1=O` [Ia-45, (4S)-4-(6,11-Dihydro-5H-dibenzo[2,1-b:1′,2′-e][7]annulen-11-yl)-9-hydroxy-6-imidazol-1-yl-2-isopropyl-3,4-dihydropyrazino[1,2-c]pyrimidine-1,8-dione], the concentration for half-maximal inhibition (IC50) was found to be 62 nM. Regarding `CC(C)N1C[C@H](C2c3ccccc3CCc3ccccc32)n2c(S(C)(=O)=O)nc(=O)c(O)c2C1=O` [Ia-76, (4S)-4-(6,11-Dihydro-5H-dibenzo[2,1-b:1′,2′-e][7]annulen-11-yl)-9-hydroxy-2-isopropyl-6-methylsulfonyl-3,4-dihydropyrazino[1,2-c]pyrimidine-1,8-dione], the half-maximal inhibitory concentration (IC50) was found to be 13 nM.

As to `COc1nc(=O)c(O)c2n1C(C(c1ccc(Cl)cc1)c1ccc(Cl)cc1)CN(C(C)C)C2=O` (centres unmarked) [Ia-63, 4-[Bis(4-chlorophenyl)methyl]-9-hydroxy-2-isopropyl-6-methoxy-3,4-dihydropyrazino[1,2-c]pyrimidine-1,8-dione], the half-maximal inhibitory concentration (IC50) is 302 nM.

In the case of `CC(C)N1C[C@H](C(c2ccccc2)c2ccccc2)n2c(c(O)c(=O)n(C)c2=O)C1=O` [Example 1b-1, (4S)-4-Benzhydryl-9-hydroxy-2-isopropyl-7-methyl-3,4-dihydropyrazino[1,2-c]pyrimidine-1,6,8-trione], the IC50 was 1660 nM.

For the molecule `COc1nc(=O)c(O)c2n1C(C(c1ccccc1)c1ccccc1Br)CN(C)C2=O` (centres unmarked) [Ia-70, 4-[(2-Bromophenyl)-phenyl-methyl]-9-hydroxy-6-methoxy-2-methyl-3,4-dihydropyrazino[1,2-c]pyrimidine-1,8-dione], the IC50 is 27 nM.

Take `CCSc1nc(=O)c(O)c2n1[C@@H](C(c1ccccc1)c1ccccc1)CN(C(C)C)C2=O` [Ia-24, (4S)-4-Benzhydryl-6-ethylsulfanyl-9-hydroxy-2-isopropyl-3,4-dihydropyrazino[1,2-c]pyrimidine-1,8-dione]: the IC50 was found to be 11900 nM. With `CC(C)Nc1nc(=O)c(O)c2n1[C@@H](C(c1ccccc1)c1ccccc1)CN(C(C)C)C2=O` [Ia-35, (4S)-4-Benzhydryl-9-hydroxy-2-isopropyl-6-(isopropylamino)-3,4-dihydropyrazino[1,2-c]pyrimidine-1,8-dione], the IC50 came out at 324 nM. On the same count and under the same terms, the result for `COc1nc(=O)c(O)c2n1[C@@H](C1c3ccccc3CCc3ccccc31)CN(C)C2=O` [Example 1a-9, (4S)-4-(10,11-Dihydro-5H-dibenzo[a,d][7]annulen-5-yl)-9-hydroxy-6-methoxy-2-methyl-3,4-dihydro-2H-pyrazino[1,2-c]pyrimidine-1,8-dione] reads 6 nM; that for `CC[S+]([O-])c1nc(=O)c(O)c2n1[C@@H](C(c1ccccc1)c1ccccc1)CN(C(C)C)C2=O` (stereo partly drawn) [Ia-32, (4S)-4-Benzhydryl-6-ethylsulfinyl-9-hydroxy-2-isopropyl-3,4-dihydropyrazino[1,2-c]pyrimidine-1,8-dione], 117 nM; that for `CN1C[C@H](C2c3ccccc3CCc3ccccc32)n2c(O)nc(=O)c(O)c2C1=O` [Example 1a-11, (4S)-4-(10,11-Dihydro-5H-dibenzo[a,d][7]annulen-5-yl)-6,9-dihydroxy-2-methyl-3,4-dihydro-2H-pyrazino[1,2-c]pyrimidine-1,8-dione], 128 nM. On to `COc1nc(=O)c(O)c2n1C(C1c3cccc(F)c3CCc3c(F)cccc31)CN(C(C)C)C2=O` (centres unmarked) [Example 1a-20, 4-(1,9-Difluoro-10,11-dihydro-5H-dibenzo[a,d][7]annulen-5-yl)-9-hydroxy-6-methoxy-2-(propan-2-yl)-3,4-dihydro-2H-pyrazino[1,2-c]pyrimidine-1,8-dione], for which the half-inhibitory concentration (IC50) was determined as 16 nM. On to `CC(C)N1C[C@H](C2c3ccccc3CCc3ccccc32)n2c(NS(C)(=O)=O)nc(=O)c(O)c2C1=O` [Ia-22, N-[(4S)-4-(6,11-dihydro-5H-dibenzo[1,2-a:2′,1′-d][7]annulen-11-yl)-9-hydroxy-2-isopropyl-1,8-dioxo-3,4-dihydropyrazino[1,2-c]pyrimidin-6-yl]methanesulfonamide], for which the IC50 is 144 nM. On the same count and under the same terms, for `Cc1nc(=O)c(O)c2n1[C@@H](C(c1ccccc1)c1ccccc1)CN(C(C)C)C2=O` [Ia-40, (4S)-4-Benzhydryl-9-hydroxy-2-isopropyl-6-methyl-3,4-dihydropyrazino[1,2-c]pyrimidine-1,8-dione] the value was 119 nM; for `C=Cc1nc(=O)c(O)c2n1C(C1c3ccccc3CCc3ccccc31)CN(C(C)C)C2=O` (centres unmarked) [Ia-47, 4-(6,11-Dihydro-5H-dibenzo[2,1-b:1′,2′-e][7]annulen-11-yl)-9-hydroxy-2-isopropyl-6-vinyl-3,4-dihydropyrazino[1,2-c]pyrimidine-1,8-dione], 40 nM; for `CC(C)N1C[C@H](C(c2ccccc2)c2ccccc2)n2c(C#N)nc(=O)c(O)c2C1=O` [Ia-51, (4S)-4-Benzhydryl-9-hydroxy-2-isopropyl-1,8-dioxo-3,4-dihydropyrazino[1,2-c]pyrimidine-6-carbonitrile], 368 nM.

The same assay, now with this note: A549, isomers identified by X-ray analysis, read-out: IC50.
Regarding `COc1nc(=O)c(O)c2n1[C@H]([C@@H]1c3ccccc3CSc3ccccc31)CN(C(C)C)C2=O` (single isomer, unassigned) [Example 15], the 50% inhibitory concentration (IC50) stood at 34 nM. On the same count and under the same terms, the result for `COc1nc(=O)c(O)c2n1[C@@H]([C@@H]1c3ccccc3CSc3ccccc31)CN(C(C)C)C2=O` (single isomer, unassigned) [Example 16] reads 4 nM; that for `COc1nc(=O)c(O)c2n1[C@H]([C@H]1c3ccccc3CSc3ccccc31)CN(C(C)C)C2=O` (single isomer, unassigned) [Example 17], 28 nM.
